Measurements reported in patent US5068251A, “Lipoxygenase inhibiting compounds” (Abbott Laboratories, priority 1988, dated 1991).

What was measured:
[1] = system: leukotriene biosynthesis; experiment: Inhibition of leukotriene biosynthesis in vivo, rat peritoneal anaphylaxis model; details: 40 mg/kg i.p., 30 minutes prior to antigen challenge, peritoneal fluids collected 15 minutes after challenge, versus mean of control group
Description: Inhibition of the biosynthesis of leukotrienes in vivo after intraperitoneal administration of compound was determined using a rat peritoneal anaphylaxis model. In this model rats were injected intraperitoneally (ip) with rabbit antibody to bovine serum albumin (BSA) and three hours later injected ip with BSA to induce an antgen-antibody response. Rats were sacrificed 15 minutes after this challenge and the peritoneal fluids were collected and analyzed for leukotriene levels. Test compound was injected intraperitoneal 30 minutes prior to the antigen challenge. Percent inhibition values were determined by comparing the treatment group to the mean of the control group.

[2] = target: T1, 5-lipoxygenase (Rattus norvegicus, UniProt P12527); experiment: Inhibition of 5-lipoxygenase activity in 20,000×g supernatant from homogenized RBL-1 cells; format: biochemical; details: linear regression of percentage inhibition versus log inhibitor concentration, read-out: IC50 (In vitro 5-lipoxygenase inhibitory potency)
T1 construct: 20,000×g supernatant from homogenized RBL-1 cells; endogenous in cells; host or cells: RBL-1 cells (20,000×g supernatant of the homogenate)
T1 sequence (P12527 1-673): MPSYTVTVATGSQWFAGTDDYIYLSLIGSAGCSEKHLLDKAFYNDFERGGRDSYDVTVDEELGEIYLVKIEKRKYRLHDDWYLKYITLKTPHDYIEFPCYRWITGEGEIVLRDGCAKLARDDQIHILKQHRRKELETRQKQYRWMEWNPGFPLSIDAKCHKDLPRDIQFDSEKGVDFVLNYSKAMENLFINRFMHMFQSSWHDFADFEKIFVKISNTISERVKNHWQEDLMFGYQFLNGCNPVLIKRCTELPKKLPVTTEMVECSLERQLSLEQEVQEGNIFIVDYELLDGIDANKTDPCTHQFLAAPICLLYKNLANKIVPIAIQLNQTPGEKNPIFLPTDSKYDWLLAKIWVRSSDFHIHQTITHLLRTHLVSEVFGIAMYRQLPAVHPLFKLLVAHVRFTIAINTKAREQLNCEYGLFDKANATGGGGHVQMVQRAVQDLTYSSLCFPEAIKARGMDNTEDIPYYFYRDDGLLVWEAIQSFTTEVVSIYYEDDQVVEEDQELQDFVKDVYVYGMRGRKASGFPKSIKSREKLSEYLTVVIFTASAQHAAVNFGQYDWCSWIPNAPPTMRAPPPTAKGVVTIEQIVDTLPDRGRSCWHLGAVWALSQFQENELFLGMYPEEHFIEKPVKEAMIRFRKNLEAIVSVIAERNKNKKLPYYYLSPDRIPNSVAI
Description: Inhibition of 5-lipoxygenase activity was determined using the 20,000×g supernatant from homogenized RBL-1 cells in a similar manner as that described by Dyer and coworkers (Dyer, R. D.; Haviv, F.; Hanel, A. M.; Bornemier, D. A.; Carter, G. W. Fed. Proc , Fed. Am. Soc. Exp. Biol. 1984, 43, 1462A).

IC50 [2] [nM]	SMILES	inhibition of leukotriene biosynthesis in vivo [1] [%]
	COc1ccc2c(c1)c(CNC(=O)N(C)O)c(C)n2C(=O)c1ccc(Cl)cc1 [Example 1, N'-hydroxy-N'-methyl-N-(4'-chlorobenzoyl-5-methoxy-2-methyl-3-indolyl)methyl urea]	81
2900	CC(C)Cc1ccc(C(C)NC(=O)NO)cc1 (stereo not drawn) [Example 3, N'-hydroxy-N-[l-(4-(2'methylpropyl)phenyl)ethyl]urea]	
1900	CC(C)Cc1ccc(C(C)CNC(=O)NO)cc1 (stereo not drawn) [Example 4, N'-hydroxy-N-[2-(4-(2'-methylpropyl)phenyl)]urea]	
